Measured values reported in patent US20250263459A1, “STABILIZED PACAP PEPTIDE” (SENJU PHARMACEUTICAL CO., LTD., priority 2019, published 2025).
Non-standard residues stand in square brackets, D forms with d. Residues, ends and D or L forms follow the SMILES beside them. Ala(1H-tetrazol-5-yl) = N[C@@H](Cc1nnn[nH]1)C(=O)O

Assay: Stability test 1, sample preparation 5: survival rate of peptide in Tris buffer (pH 7.0) after storage, HPLC
Format: physicochemical
Settings: 100 μM peptide; for survival rate after correction for water, 40° C. 4 week / survival rate after correction for water, 40° C. 8 week: Tris buffer pH 7.0, 40° C.; for survival rate after correction for water, 40° C. 4 week: 4 weeks (Table 13); for survival rate after correction for water, 40° C. 8 week: 8 weeks (Table 13); for survival rate after correction for water, 60° C. 1 week / survival rate after correction for water, 60° C. 2 week: Tris buffer pH 7.0, 60° C.; for survival rate after correction for water, 60° C. 1 week: 1 week (Table 13); for survival rate after correction for water, 60° C. 2 week: 2 weeks (Table 13)
Method: The peak area value for the peptide in the chromatogram was calculated, and the survival rate (survival rate before correction for water) was calculated using formula (2). The survival rate after correction for water was also calculated from the survival rate before correction for water using formula (3) to take into account the permeability of the container.
The prepared peptide solutions were incubated for 4 weeks or 8 weeks in a 40° C. thermostatic bath, and for one week or 2 weeks in a thermostatic bath at 60° C., to obtain stored samples.
The following gradient time was used only for peptide 30.

Compound	survival rate after correction for water, 40° C. 4 week	survival rate after correction for water, 40° C. 8 week	survival rate after correction for water, 60° C. 1 week	survival rate after correction for water, 60° C. 2 week
CC[C@H](C)[C@H](NC(=O)CNC(=O)[C@H](Cc1nnn[nH]1)NC(=O)[C@H](C)NC(=O)[C@H](Cc1c[nH]cn1)NC(C)=O)C(=O)N[C@@H](Cc1ccccc1)C(=O)N[C@H](C(=O)N[C@@H](Cc1nnn[nH]1)C(=O)N[C@@H](CO)C(=O)N[C@@H](Cc1ccc(O)cc1)C(=O)N[C@@H](CO)C(=O)N[C@@H](CCCNC(=N)N)C(=O)N[C@@H](Cc1ccc(O)cc1)C(=O)N[C@@H](CCCNC(=N)N)C(=O)N[C@@H](CCCCN)C(=O)N[C@@H](C)C(=O)N[C@@H](CC(C)C)C(=O)N[C@@H](C)C(=O)N[C@H](C(=O)N[C@@H](CCCCN)C(=O)N[C@@H](CCCCN)C(=O)N[C@@H](Cc1ccc(O)cc1)C(=O)N[C@@H](CC(C)C)C(=O)N[C@@H](C)C(=O)N[C@@H](C)C(=O)N[C@H](C(=O)N[C@@H](CC(C)C)C(N)=O)C(C)C)C(C)C)[C@@H](C)O [Peptide 26, HATzGI FITzSY SRYRK ALAVK KYLAA VL] (Ac-HA[Ala(1H-tetrazol-5-yl)]GIFT[Ala(1H-tetrazol-5-yl)]SYSRYRKALAVKKYLAAVL-NH2)	93.2%	89.7%	97.9%	94.4%
CC[C@H](C)[C@H](NC(=O)CNC(=O)[C@H](Cc1nnn[nH]1)NC(=O)[C@H](CO)NC(=O)[C@H](Cc1c[nH]cn1)NC(C)=O)C(=O)N[C@@H](Cc1ccccc1)C(=O)N[C@@H](C)C(=O)N[C@@H](Cc1nnn[nH]1)C(=O)N[C@@H](CO)C(=O)N[C@@H](Cc1ccc(O)cc1)C(=O)N[C@@H](CO)C(=O)N[C@@H](CCCNC(=N)N)C(=O)N[C@@H](Cc1ccc(O)cc1)C(=O)N[C@@H](CCCNC(=N)N)C(=O)N[C@@H](CCCCN)C(=O)N[C@@H](CCC(N)=O)C(=O)N[C@@H](C)C(=O)N[C@@H](C)C(=O)N[C@H](C(=O)N[C@@H](CCCCN)C(=O)N[C@@H](CCCCN)C(=O)N[C@@H](Cc1ccc(O)cc1)C(=O)N[C@@H](CC(C)C)C(=O)N[C@@H](C)C(=O)N[C@@H](C)C(=O)N[C@H](C(=O)N[C@@H](CC(C)C)C(N)=O)C(C)C)C(C)C [Peptide 29, HSTzGI FATzSY SRYRK QAAVK KYLAA VL] (Ac-HS[Ala(1H-tetrazol-5-yl)]GIFA[Ala(1H-tetrazol-5-yl)]SYSRYRKQAAVKKYLAAVL-NH2)	86.1%	77.4%	96.3%	91.9%
CC[C@H](C)[C@H](NC(=O)CNC(=O)[C@H](Cc1nnn[nH]1)NC(=O)[C@H](CO)NC(=O)[C@H](Cc1c[nH]cn1)NC(C)=O)C(=O)N[C@@H](Cc1ccccc1)C(=O)N[C@@H](C)C(=O)N[C@@H](Cc1nnn[nH]1)C(=O)N[C@@H](CO)C(=O)N[C@@H](Cc1ccc(O)cc1)C(=O)N[C@@H](CO)C(=O)N[C@@H](CCCNC(=N)N)C(=O)N[C@@H](Cc1ccc(O)cc1)C(=O)N[C@@H](CCCNC(=N)N)C(=O)N[C@@H](CCCCN)C(=O)N[C@@H](C)C(=O)N[C@@H](CC(C)C)C(=O)N[C@@H](C)C(=O)N[C@H](C(=O)N[C@@H](CCCCN)C(=O)N[C@@H](CCCCN)C(=O)N[C@@H](Cc1ccc(O)cc1)C(=O)N[C@@H](CC(C)C)C(=O)N[C@@H](C)C(=O)N[C@@H](C)C(=O)N[C@H](C(=O)N[C@@H](CC(C)C)C(N)=O)C(C)C)C(C)C [Peptide 28, HSTzGI FATzSY SRYRK ALAVK KYLAA VL] (Ac-HS[Ala(1H-tetrazol-5-yl)]GIFA[Ala(1H-tetrazol-5-yl)]SYSRYRKALAVKKYLAAVL-NH2)	94.1%	89.8%	98.6%	90.9%
CC[C@H](C)[C@H](NC(=O)CNC(=O)[C@H](Cc1nnn[nH]1)NC(=O)[C@H](C)NC(=O)[C@H](Cc1c[nH]cn1)NC(C)=O)C(=O)N[C@@H](Cc1ccccc1)C(=O)N[C@@H](C)C(=O)N[C@@H](Cc1nnn[nH]1)C(=O)N[C@@H](C)C(=O)N[C@@H](Cc1ccc(O)cc1)C(=O)N[C@@H](CO)C(=O)N[C@@H](CCCNC(=N)N)C(=O)N[C@@H](Cc1ccc(O)cc1)C(=O)N[C@@H](CCCNC(=N)N)C(=O)N[C@@H](CCCCN)C(=O)N[C@@H](C)C(=O)N[C@@H](C)C(=O)N[C@@H](C)C(=O)N[C@H](C(=O)N[C@@H](CCCCN)C(=O)N[C@@H](CCCCN)C(=O)N[C@@H](Cc1ccc(O)cc1)C(=O)N[C@@H](CC(C)C)C(=O)N[C@@H](C)C(=O)N[C@@H](C)C(=O)N[C@H](C(=O)N[C@@H](CC(C)C)C(N)=O)C(C)C)C(C)C [Peptide 30, HATzGI FATzAY SRYRK AAAVK KYLAA VL] (Ac-HA[Ala(1H-tetrazol-5-yl)]GIFA[Ala(1H-tetrazol-5-yl)]AYSRYRKAAAVKKYLAAVL-NH2)	91.5%	83.4%	96.7%	93.7%
CC[C@H](C)[C@H](NC(=O)CNC(=O)[C@H](Cc1nnn[nH]1)NC(=O)[C@H](CO)NC(=O)[C@H](Cc1c[nH]cn1)NC(C)=O)C(=O)N[C@@H](Cc1ccccc1)C(=O)N[C@@H](C)C(=O)N[C@@H](Cc1nnn[nH]1)C(=O)N[C@@H](CO)C(=O)N[C@@H](Cc1ccc(O)cc1)C(=O)N[C@@H](CO)C(=O)N[C@@H](CCCNC(=N)N)C(=O)N[C@@H](Cc1ccc(O)cc1)C(=O)N[C@@H](CCCNC(=N)N)C(=O)N[C@@H](CCCCN)C(=O)N[C@@H](CCC(N)=O)C(=O)N[C@@H](CC(C)C)C(=O)N[C@@H](C)C(=O)N[C@H](C(=O)N[C@@H](CCCCN)C(=O)N[C@@H](CCCCN)C(=O)N[C@@H](Cc1ccc(O)cc1)C(=O)N[C@@H](CC(C)C)C(=O)N[C@@H](C)C(=O)N[C@@H](C)C(=O)N[C@H](C(=O)N[C@@H](CC(C)C)C(N)=O)C(C)C)C(C)C [Peptide 24, HSTzGI FATzSY SRYRK QLAVK KYLAA VL] (Ac-HS[Ala(1H-tetrazol-5-yl)]GIFA[Ala(1H-tetrazol-5-yl)]SYSRYRKQLAVKKYLAAVL-NH2)	90.5%	83.5%	99.5%	91.1%
CC[C@H](C)[C@H](NC(=O)CNC(=O)[C@H](Cc1nnn[nH]1)NC(=O)[C@H](C)NC(=O)[C@H](Cc1c[nH]cn1)NC(C)=O)C(=O)N[C@@H](Cc1ccccc1)C(=O)N[C@@H](C)C(=O)N[C@@H](Cc1nnn[nH]1)C(=O)N[C@@H](CO)C(=O)N[C@@H](Cc1ccc(O)cc1)C(=O)N[C@@H](CO)C(=O)N[C@@H](CCCNC(=N)N)C(=O)N[C@@H](Cc1ccc(O)cc1)C(=O)N[C@@H](CCCNC(=N)N)C(=O)N[C@@H](CCCCN)C(=O)N[C@@H](CCC(N)=O)C(=O)N[C@@H](CC(C)C)C(=O)N[C@@H](C)C(=O)N[C@H](C(=O)N[C@@H](CCCCN)C(=O)N[C@@H](CCCCN)C(=O)N[C@@H](Cc1ccc(O)cc1)C(=O)N[C@@H](CC(C)C)C(=O)N[C@@H](C)C(=O)N[C@@H](C)C(=O)N[C@H](C(=O)N[C@@H](CC(C)C)C(N)=O)C(C)C)C(C)C [Peptide 25, HATzGI FATzSY SRYRK QLAVK KYLAA VL] (Ac-HA[Ala(1H-tetrazol-5-yl)]GIFA[Ala(1H-tetrazol-5-yl)]SYSRYRKQLAVKKYLAAVL-NH2)	91.3%	85.1%	97.3%	93.1%
CC(=O)N[C@@H](Cc1c[nH]cn1)C(=O)N[C@@H](CO)C(=O)N[C@@H](Cc1nnn[nH]1)C(=O)NCC(=O)N[C@@H](C)C(=O)N[C@@H](Cc1ccccc1)C(=O)N[C@H](C(=O)N[C@@H](Cc1nnn[nH]1)C(=O)N[C@@H](CO)C(=O)N[C@@H](Cc1ccc(O)cc1)C(=O)N[C@@H](CO)C(=O)N[C@@H](CCCNC(=N)N)C(=O)N[C@@H](Cc1ccc(O)cc1)C(=O)N[C@@H](CCCNC(=N)N)C(=O)N[C@@H](CCCCN)C(=O)N[C@@H](CCC(N)=O)C(=O)N[C@@H](CC(C)C)C(=O)N[C@@H](C)C(=O)N[C@H](C(=O)N[C@@H](CCCCN)C(=O)N[C@@H](CCCCN)C(=O)N[C@@H](Cc1ccc(O)cc1)C(=O)N[C@@H](CC(C)C)C(=O)N[C@@H](C)C(=O)N[C@@H](C)C(=O)N[C@H](C(=O)N[C@@H](CC(C)C)C(N)=O)C(C)C)C(C)C)[C@@H](C)O [Peptide 23, HSTzGA FTTzSY SRYRK QLAVK KYLAA VL] (Ac-HS[Ala(1H-tetrazol-5-yl)]GAFT[Ala(1H-tetrazol-5-yl)]SYSRYRKQLAVKKYLAAVL-NH2)	87.7%	89.1%	96.4%	91.3%
